From ChEMBL document CHEMBL1909046, “DrugMatrix in vitro pharmacology data” come the findings set out here.

The target in data set [1] is T1, Alpha-2A adrenergic receptor (Homo sapiens, UniProt P08913). Also: in other assays of this panel Not Active means under 50% inhibition at 10 µM.
T1 sequence (P08913 whole entry): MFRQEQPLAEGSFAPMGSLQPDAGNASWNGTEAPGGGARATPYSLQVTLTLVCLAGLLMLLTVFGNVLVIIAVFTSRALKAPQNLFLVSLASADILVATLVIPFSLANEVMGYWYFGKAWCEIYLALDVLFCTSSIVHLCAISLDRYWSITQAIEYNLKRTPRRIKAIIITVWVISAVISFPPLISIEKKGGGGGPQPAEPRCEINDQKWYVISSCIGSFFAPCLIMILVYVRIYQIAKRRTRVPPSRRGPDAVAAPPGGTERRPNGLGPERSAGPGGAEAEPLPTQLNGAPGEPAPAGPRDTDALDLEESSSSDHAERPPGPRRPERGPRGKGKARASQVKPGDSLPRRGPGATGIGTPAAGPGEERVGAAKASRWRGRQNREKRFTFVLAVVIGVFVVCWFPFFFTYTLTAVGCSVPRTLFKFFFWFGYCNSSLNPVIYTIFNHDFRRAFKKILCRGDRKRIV
Type of data set: cell membranes, Sf9, Membrane. Conditions: for Ki: read-out: Ki.

The nature of data set [2]: DRUGMATRIX: Calcium Channel Type L, Benzothiazepine radioligand binding (ligand: [3H] Diltiazem). The data set is classed as cell membranes, Rattus norvegicus, Wistar, Brain, Membrane. Conditions: Not Active = under 50% inhibition at 10 µM.
Data set [3] addresses 5-hydroxytryptamine receptor 4 (Cavia porcellus, UniProt O70528). Type of data set: cell membranes, Dunkin-Hartley, Striatum, Membrane.
The nature of data set [4]: DRUGMATRIX: Calcium Channel Type L, Phenylalkylamine radioligand binding (ligand: [3H] (-)-Desmethoxyverapamil (D-888)). The data set is classed as cell membranes, Rattus norvegicus, Wistar, Brain, Membrane. Particulars: Not Active = under 50% inhibition at 10 µM.
A short description of data set [5]: DRUGMATRIX: Nicotinic Acetylcholine radioligand binding (ligand: [125I] Epibatidine). Particulars: imr-32; Not Active = under 50% inhibition at 10 µM. The data set is classed as cell membranes, Membrane.
Data set [6] is described as follows: DRUGMATRIX: Purinergic P2X radioligand binding (ligand: [3H] alpha, beta-Methylene-ATP). The data set is classed as cell membranes, Oryctolagus cuniculus, New Zealand albino, Urinary bladder, Membrane. Particulars: Not Active = under 50% inhibition at 10 µM.
For another data set, the target named is T2, Cytochrome P450 2A6 (Homo sapiens, UniProt P11509). Also: in other assays of this panel Not Active means under 50% inhibition at 10 µM.
T2 sequence (P11509 whole entry): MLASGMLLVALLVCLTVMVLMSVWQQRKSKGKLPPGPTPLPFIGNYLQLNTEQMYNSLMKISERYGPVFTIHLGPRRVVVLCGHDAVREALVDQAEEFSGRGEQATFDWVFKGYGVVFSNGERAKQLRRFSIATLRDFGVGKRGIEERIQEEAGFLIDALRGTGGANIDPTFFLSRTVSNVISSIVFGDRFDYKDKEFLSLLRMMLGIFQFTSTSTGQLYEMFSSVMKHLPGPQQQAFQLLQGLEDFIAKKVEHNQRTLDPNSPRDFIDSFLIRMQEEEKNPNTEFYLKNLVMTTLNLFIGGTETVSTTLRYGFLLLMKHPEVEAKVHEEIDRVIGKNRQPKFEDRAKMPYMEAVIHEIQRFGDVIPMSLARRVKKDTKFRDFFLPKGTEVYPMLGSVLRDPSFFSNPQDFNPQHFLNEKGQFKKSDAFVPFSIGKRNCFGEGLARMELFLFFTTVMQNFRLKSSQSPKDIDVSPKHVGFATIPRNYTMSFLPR
Conditions: bti-tn-5b1-4.

Each structure is given as a SMILES string.

Chain of 5-hydroxytryptamine receptor 4 (O70528 whole entry): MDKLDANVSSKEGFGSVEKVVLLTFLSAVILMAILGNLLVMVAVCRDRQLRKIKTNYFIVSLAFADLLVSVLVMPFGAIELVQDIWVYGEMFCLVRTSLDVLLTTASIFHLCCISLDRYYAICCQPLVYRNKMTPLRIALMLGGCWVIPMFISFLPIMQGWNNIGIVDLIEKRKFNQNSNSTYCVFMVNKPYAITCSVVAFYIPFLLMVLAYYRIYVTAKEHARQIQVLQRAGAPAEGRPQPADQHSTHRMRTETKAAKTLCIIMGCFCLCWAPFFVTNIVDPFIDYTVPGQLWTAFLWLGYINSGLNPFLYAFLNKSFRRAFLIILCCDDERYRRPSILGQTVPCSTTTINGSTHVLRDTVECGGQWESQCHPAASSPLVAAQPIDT

`Nc1cc(-c2ccncc2)c[nH]c1=O` [INAMRINONE]: the IC50 entry in data set [1] (sf9), in data set [2], in data set [3], in data set [4], in data set [5] and in data set [6] was “Not Active” in each case. Besides, the IC50 (in general, the concentration at which inhibition is half-maximal) against Cytochrome P450 2A6 is given as “Not Active”. Moreover, the Ki entry (in data set [2]; in data set [4]; in data set [5]; in data set [6]; at Cytochrome P450 2A6) was “Not Active” in each case.
For the compound `CCCCC1=NC2(CCCC2)C(=O)N1Cc1ccc(-c2ccccc2-c2nnn[nH]2)cc1` [IRBESARTAN], the IC50 result in data set [1] (sf9), in data set [2], in data set [3], in data set [4], in data set [5] and in data set [6] was “Not Active” each time. The IC50 entry against Cytochrome P450 2A6 is on record as “Not Active”. For the same compound, the Ki result (in data set [2]; in data set [4]; in data set [5]; in data set [6]; at Cytochrome P450 2A6) was “Not Active” in each case.
On to `CN1CCC(=C2c3ccccc3CC(=O)c3sccc32)CC1` [KETOTIFEN], for which the IC50 was 2190 nM in data set [1] (read-out: IC50); 2300 nM in data set [2] (read-out: IC50); “Not Active” in data set [3]; “Not Active” in data set [4]; “Not Active” in data set [5]; “Not Active” in data set [6]. At Cytochrome P450 2A6, the IC50 result was “Not Active”. Besides, the Ki (usually the dissociation constant of the complex between target and ligand, obtained from inhibition or displacement) in data set [1] is 820 nM; in data set [2] (read-out: Ki), 2050 nM; in data set [4] it was “Not Active”; in data set [5], “Not Active”; in data set [6] it was “Not Active”; on Cytochrome P450 2A6 it was “Not Active”.
For `C[N+](C)(C)C[C@H](O)CC(=O)[O-]` [LEVOCARNITINE], the IC50 entry in data set [1] (sf9), in data set [2], in data set [3], in data set [4], in data set [5] and in data set [6] was “Not Active” throughout. For the same compound, the IC50 result against Cytochrome P450 2A6 is recorded as “Not Active”. Moreover, the Ki result (in data set [2]; in data set [4]; in data set [5]; in data set [6]; at Cytochrome P450 2A6) was “Not Active” each time.
On to `C[C@H]1COc2c(N3CCN(C)CC3)c(F)cc3c(=O)c(C(=O)O)cn1c23.C[C@H]1COc2c(N3CCN(C)CC3)c(F)cc3c(=O)c(C(=O)O)cn1c23.O` [LEVOFLOXACIN], for which the IC50 result in data set [1] (sf9), in data set [2], in data set [3], in data set [4], in data set [5] and in data set [6] was “Not Active” each time. For the same compound, the IC50 result against Cytochrome P450 2A6 is “Not Active”. The Ki result (in data set [2]; in data set [4]; in data set [5]; in data set [6]; at Cytochrome P450 2A6) was “Not Active” throughout.
In the case of `CCn1cc(C(=O)O)c(=O)c2cc(F)c(N3CCNC(C)C3)c(F)c21` (stereo unspecified) [LOMEFLOXACIN], the IC50 entry in data set [1] (sf9), in data set [2], in data set [3], in data set [4], in data set [5] and in data set [6] was “Not Active” each time. For the same compound, at Cytochrome P450 2A6, the IC50 entry is recorded as “Not Active”. Further, the Ki entry (in data set [2]; in data set [4]; in data set [5]; in data set [6]; on Cytochrome P450 2A6) was “Not Active” each time.
Regarding `CN1CCCC(CN2c3ccccc3Sc3ccccc32)C1` (stereo unspecified) [MEPAZINE], the IC50 in data set [1] (read-out: IC50) is 1460 nM; in data set [2], “Not Active”; in data set [3] it was “Not Active”; in data set [4] (read-out: IC50), 1550 nM; in data set [5] it was “Not Active”; in data set [6], “Not Active”. At Cytochrome P450 2A6, the IC50 result is listed as “Not Active”. The Ki in data set [1] is 546 nM; in data set [2], “Not Active”; in data set [4] (read-out: Ki), 1500 nM; in data set [5] it was “Not Active”; in data set [6] it was “Not Active”; at Cytochrome P450 2A6, “Not Active”.
